Experimental data reported in paper PMC11056319, “Targeting PRMT9-mediated arginine methylation suppresses cancer stem cell maintenance and elicits cGAS-mediated anticancer immunity” (Nature Cancer, 2024).

test system: Molm13; assay: cells; parameters: Molm13 cell viability screen of virtual-screening hits, 4 days of treatment, per cent of control; details: 1 uM, 4 days, 96 h
Description: We performed virtual screening. Briefly, we screened compounds for binding affinity to PRMT9; compounds were from the National Cancer Institute (NCI) and ZINC library (Fig. 4a,b). […] We used doses of 1 and 5 µM in a Molm13 cell-based viability assay (Extended Data Fig. 6a). […] Specifically, we assessed their effects on PRMT9 catalysis (Extended Data Fig. 6b). […] Cells were treated for 4 days with 1 or 5 μM compounds. For each compound, the number represents its library ID. Experiments were triplicated; P values were derived from t tests. b, R493 methylation assay. […] Catalytic activity was assessed by anti-R493 antibody. Synthesized R493me peptide as positive control. c, Catalysis screen of top 20 compounds. PRMT9 protein was pretreated with indicated compound (10 μM), then incubated with PABPC1 peptides and SAM. d, e, Catalytic activity of indicated compounds based on R493 methylation assay (d). Inhibition curves were calculated based on intensity of dots and normalized to DMSO (e). […] LD2 is designed based on NSC641396 (g). Docking model of NSC641396 in the catalytic pocket (f). h, IC50 analysis of LD2 in B-NHL lines. Cells were treated for 4 days with LD2. […] Cells were treated with a dose titration of 0.5–40 μM LD2 for 48 hr. The inhibition activity of LD2 to PRMT9 (right red curve) was evaluated by calculating the normalized PABPC1 R493 methylation signal. The inhibition activity of LD2 to PRMT5 (right blue curve) was evaluated by calculating the normalized SmB’B’ methylation signal (supplementary Fig. 2). k, Vina docking of LD2 with PRMT9, PRMT5, CARM1 or PRMT7 was performed, and the average docking scores (kcal/mol, with standard deviation) were shown. l, Molecular dynamics simulation analyses of LD2 with PRMT9 or PRMT5.

| SMILES | % viability [%] |
| --- | --- |
| OC(COc1cccc2ccccc12)CN1CCN(c2ccc(Cl)cc2)CC1 (centres unmarked) [NSC91397] | 148.7 |

same assay, conditions: 5 uM, 4 days, 96 h

| SMILES | % viability [%] |
| --- | --- |
| OC(COc1cccc2ccccc12)CN1CCN(c2ccc(Cl)cc2)CC1 (centres unmarked) [NSC91397] | 145.8 |

same assay, conditions: Homo sapiens, MOLM-13, 96 h, 4 days

| SMILES | viability at 1 µM [%] | viability at 5 µM [%] |
| --- | --- | --- |
| Cc1cc(N=Nc2c(O)c3ccccc3[nH]c2=O)ccc1N=Nc1ccc(C(=O)N(C)C)cc1 [NSC58052] | 96 | 80.5 |
| Clc1cc2c(c(CSc3nc4ccccc4n4cccc34)c1)OCOC2 [NSC321491] | – | 85.7 |
| COc1cc2c(=O)n3c4c(cccc4c2cc1OC)CC3 [NSC276736] | 97.9 | – |
| O=C(O)c1ccccc1-c1ccccc1C(=O)Nc1ccc2c(c1)nc(O)c1ccccc12 [NSC127133] | 99 | 102 |
| Cc1nn(-c2ccccc2)nc1C(=O)Nc1ccc2[nH]ncc2c1 [NSC371765] | – | 86.1 |
| C#Cc1cccc(NC(=O)c2ccc(Cl)cc2Cl)c1 [NSC372769] | 82.8 | 93.1 |
| O=C(O)c1cc2ccccc2cc1Nc1ccccc1 [NSC40275] | 116 | – |
| COc1cc2c(cc1OC)C(=O)Cc1ccc3c(c1CN(C)CC2)OCO3 [NSC32984] | 137 | – |
| O=C(Nc1ccccc1-c1ccccc1)C(=O)Nc1ccccc1-c1ccccc1 [NSC338042] | – | 93.1 |
| O=[N+]([O-])c1ccc(C2CC(c3ccccc3)=Nc3ccccc3S2)cc1 (centres unmarked) [NSC270738] | 84.6 | – |
| Cc1cccc2cc3cccc(C)c3nc12 [NSC61888] | 144 | 134 |
| OC(COc1cccc2ccccc12)CN1CCN(c2ccccc2)CC1 (centres unmarked) [NSC91398] | 59.8 | 60.9 |
| CN1CCN(C(=O)Nc2cccc(-c3ccccc3)c2)CC1 [NSC39352] | 96.7 | – |
| Cc1ccc(N2CCN(CC(O)COc3cccc4ccccc34)CC2)cc1 (centres unmarked) [NSC91402] | 156 | 145 |
| CCn1c2ccccc2c2cc(NC(=O)c3ccccc3-c3ccccc3C(=O)O)ccc21 [NSC132232] | 91.3 | – |
| O=C1C(=Nc2cccc(Cl)c2)CC(c2ccc(Cl)cc2)N1c1cccc(Cl)c1 (centres unmarked) [NSC13294] | 98.3 | 97.9 |
| O=C(Oc1ccc(NC(=O)c2cc3c(cc2Br)OCO3)cc1)c1ccccc1 [NSC268487] | 83.1 | 72.1 |
| O=C(Nc1cccc2ccccc12)c1cc2c(cc1Br)OCO2 [NSC292923] | 68.9 | 68.3 |
| COc1cc(C2NC(=O)C(C#N)=C(Nc3cccc(C)c3)S2)ccc1O (centres unmarked) [NSC319435] | 96.8 | – |
| CCCc1cc(=O)oc2c3c(c4c(c12)OC(C)(C)C=C4)OC(C)[C@H](C)[C@@H]3O (some centres unmarked) [NSC661122] | 100 | 79.3 |
| COc1ccc2nc(-c3ccc(Cl)cc3)cc(C(=O)O)c2c1 [NSC39984] | 76.8 | 79.5 |
| O=C(/C=C/C(=O)N1CCc2ccccc2C1)N1CCc2ccccc2C1 [NSC87838] | 92.3 | 92.6 |
| Oc1c(Cl)cc(Cl)cc1/C=N/c1nc(-c2ccc(Cl)cc2)cs1 [NSC328104] | 87.9 | – |
| CCNc1nc(Cl)nc(-c2cn(-c3ccccc3)c3ccccc23)n1 [NSC142446] | 87.1 | – |

| SMILES | viability at 1 µM [%] | viability at 5 µM [%] |
| --- | --- | --- |
| O=C(Nc1ccc2ccccc2c1)c1ccc(Cl)cc1Cl [NSC158959] | – | 127 |
| Cc1ccc(NC(=S)NC(=O)c2ccccc2)cc1NC(=S)NC(=O)c1ccccc1 [NSC5856] | 91.4 | 91.5 |
| N#Cc1ccc(NC(=O)Nc2ccc(Oc3ccc(NC(=O)Nc4ccc(C#N)cc4)cc3)cc2)cc1 [NSC80734] | – | 67.2 |
| Cc1ccc(C2=Nc3ccccc3SC(c3cccc([N+](=O)[O-])c3)C2)cc1 (centres unmarked) [NSC270737] | 90.8 | 15.1 |
| C[C@]12C[C@H](O)[C@H]3[C@@H](CCC4=CC(=O)CC[C@@]43C)[C@@H]1CC[C@@H]2c1csc(-c2ccccc2)n1 [NSC93354] | 91.9 | 69.1 |
| Cc1ccc2c(c1)Sc1c(ccc3ccccc13)N2 [NSC40273] | – | 102 |
| CC(=O)O[C@H]1CC[C@@]2(C)[C@@H](CC[C@@H]3[C@@H]2CC(=O)[C@@]2(C)[C@H]3C[C@@H]3CC(C)=CC(=O)[C@@H]32)C1 [NSC59620] | – | 93.6 |
| Cc1cc(N2CCN(C)CC2)n2nc(-c3ccc(Cl)cc3)nc2n1 [NSC252359] | 64 | 75.8 |
| O=[N+]([O-])c1ccc2[nH]c3nc4ccccc4nc3c2c1 [NSC78697] | 169 | 157 |
| O=C(Nc1ccc(C2=NCCCN2)cc1)Nc1ccc(C2=NCCCN2)cc1 [NSC63680] | – | 75.2 |
| Cc1cccc2c1c1ccc3c(c1n2C)C(=O)C=CC3=O [NSC645330] | 52.5 | 10 |
| O=C1c2ccccc2-c2nc3ccccc3n21 [NSC252777] | 77.6 | 63.7 |
| Nc1nc(N)c2cc(Sc3ccc4ccccc4c3)ccc2n1 [NSC305780] | 12.7 | 6.56 |
| O=C(Nc1ccc(Nc2ccncc2)cc1)c1ccc(Nc2ccnc3ccc([N+](=O)[O-])cc23)cc1 [NSC146771] | 91.1 | – |
| CC(=O)OCc1cc(-c2nc3ccccc3nc2O)nn1-c1ccc(Cl)cc1 [NSC339161] | – | 87.5 |
| Cc1nn(-c2ccccc2)c2c1C(c1ccc([N+](=O)[O-])cc1)C(C#N)=C(N)O2 (centres unmarked) [NSC298892] | 84.2 | 69.1 |
| O=C1c2cccc(Oc3ccccc3)c2C(=O)c2cccc(Oc3ccccc3)c21 [NSC37627] | 144 | 151 |
| c1ccc(-c2nc3ccccc3nc2-c2ccc(Sc3ccc(-c4nc5ccccc5nc4-c4ccccc4)cc3)cc2)cc1 [NSC293778] | 95.7 | – |
| Cc1ccc2c(c1)c1ccc3c(c1n2C)C(=O)C=CC3=O [NSC661221] | 7.53 | 7.31 |
| CN1C2c3ccccc3C3C4c5ccccc5C(C31)C(C2[N+](=O)[O-])N4C (centres unmarked) [NSC137112] | 146 | 148 |
| COc1cccc(/C=C2\CCc3ccccc3C2=O)c1 [NSC636718] | – | 65.6 |
| CCN(CC)c1nc(Cl)nc(Nc2ccc3cc(-c4ccccc4)c(=O)oc3c2)n1 [NSC338963] | 114 | 110 |
| Fc1ccc(-c2cc(-c3cccs3)cc(-c3ccccc3)n2)cc1 [NSC246999] | – | 98.7 |
